# Laboratory results as given in ChEMBL document CHEMBL1201862, “PubChem BioAssay data set” (2004).
#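 Five concentrations, 48 hours, 96-well plates. GI50: concentration for 50% inhibition of growth.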 Calls of active or inactive are those of the source. No stated cut-off is given here; in the data, active = GI50 up to about 1.1 µM and inactive = higher.
# Tests used:
# Assay in all cases: NCI tumour cell line growth inhibition, 48 h
# XF498 = system: XF498
# DMS-114 = system: DMS-114
# LXFL 529 = system: LXFL 529
# HOP-18 = system: HOP-18
# DLD-1 = system: DLD-1
# DMS-273 = system: DMS-273
# M19-MEL = system: M19-MEL
# RXF 631 = system: RXF 631
# MDA-N = system: MDA-N
SMILES,GI50 (XF498),GI50 (DMS-114),GI50 (LXFL 529),GI50 (HOP-18),GI50 (DLD-1),GI50 (DMS-273),GI50 (M19-MEL),GI50 (RXF 631),GI50 (MDA-N)
NC1=NS(=O)(=O)N=C(N)C1=Cc1ccc([N+](=O)[O-])o1,18.7 µM (inactive),17.7 µM (inactive),17.1 µM (inactive),18 µM (inactive),17.1 µM (inactive),16.7 µM (inactive),16.5 µM (inactive),–,–
O=C(NCO)NCOCn1c(=O)n(CO)c(=O)n(CO)c1=O,23.2 µM (inactive),34.4 µM (inactive),20 µM (inactive),> 100 µM (inactive),24.9 µM (inactive),–,32.4 µM (inactive),> 61.7 µM (inactive),–
O=C(O)[C@H](NS(=O)(=O)c1ccc2ccccc2c1)c1ccccc1,99.3 µM (inactive),–,> 100 µM (inactive),> 100 µM (inactive),> 100 µM (inactive),> 100 µM (inactive),> 100 µM (inactive),> 100 µM (inactive),–
NCCSc1cc(O)c2c(c1N)C(=O)c1ccccc1C2=O,21.8 µM (inactive),–,38.2 µM (inactive),–,30.3 µM (inactive),–,24.3 µM (inactive),25.2 µM (inactive),–
N#[N+][c-]1c(-c2ccccc2)n[nH]c1=O,> 100 µM (inactive),> 100 µM (inactive),> 100 µM (inactive),–,> 100 µM (inactive),> 100 µM (inactive),> 100 µM (inactive),> 100 µM (inactive),–
BrC12C3C4C5C(C(C43)C13OCCO3)C52 (stereo unspecified),60.4 µM (inactive),> 100 µM (inactive),> 100 µM (inactive),8.55 µM (inactive),> 100 µM (inactive),> 100 µM (inactive),> 100 µM (inactive),> 100 µM (inactive),–
O=C1NC(=S)NC(=O)C1=Cc1ccc2ccccc2n1,–,> 100 µM (inactive),> 100 µM (inactive),> 100 µM (inactive),> 100 µM (inactive),> 100 µM (inactive),> 100 µM (inactive),–,–
Cc1ccc(C)c(/C(=N\N=C(N)N)C2CC2)c1,–,–,–,–,–,–,–,–,23.4 µM (inactive)
COc1ccc(/C=C/C(=O)c2sc(-c3cccnc3)nc2C)cc1,–,26.7 µM (inactive),–,45.3 µM (inactive),39.4 µM (inactive),40.9 µM (inactive),67.9 µM (inactive),54.3 µM (inactive),–
O=c1[nH]c(S)nc2c1sc(=S)n2-c1ccccc1,> 100 µM (inactive),> 100 µM (inactive),> 100 µM (inactive),> 100 µM (inactive),> 100 µM (inactive),> 100 µM (inactive),> 100 µM (inactive),–,–
CC12CC/C(=N/NC(N)=O)C3C1CCCC32,–,> 100 µM (inactive),> 100 µM (inactive),> 100 µM (inactive),> 100 µM (inactive),> 100 µM (inactive),> 100 µM (inactive),> 100 µM (inactive),–
NC1CC(Cl)c2c(Cl)sc(Cl)c21 (stereo unspecified),–,–,–,–,–,–,–,–,> 100 µM (inactive)
COC(=O)/C(C#N)=C1\CCC(OC)N1C (stereo unspecified),> 100 µM (inactive),> 100 µM (inactive),> 100 µM (inactive),> 100 µM (inactive),> 100 µM (inactive),> 100 µM (inactive),> 100 µM (inactive),–,–
Cc1cc2nc(O)c(CCC(=O)O)nc2cc1C,> 100 µM (inactive),35.6 µM (inactive),> 100 µM (inactive),> 100 µM (inactive),> 100 µM (inactive),–,> 100 µM (inactive),> 100 µM (inactive),–
O=C1C(c2ccccc2)=[N+]([O-])c2ccc(Cl)cc21,19 µM (inactive),12.8 µM (inactive),13.6 µM (inactive),29.6 µM (inactive),19 µM (inactive),–,20.1 µM (inactive),32.7 µM (inactive),–
CCOC(=O)CCC(=O)C1c2cccc(O)c2C(=O)c2c(O)cccc21,0.236 µM (active),0.387 µM (active),–,1.77 µM (inactive),1.69 µM (inactive),1.28 µM (inactive),0.566 µM (active),–,–
CC(/C=C/NNC1=NN=C(c2ccccc2)C(c2ccccc2)N1)Sc1ccccc1N (stereo unspecified),–,–,4.98 µM (inactive),–,3.62 µM (inactive),6.7 µM (inactive),9.2 µM (inactive),13.1 µM (inactive),–
CC(C)c1ccccc1NC(=O)CCC(=O)NN,> 100 µM (inactive),–,> 100 µM (inactive),–,> 100 µM (inactive),> 100 µM (inactive),> 100 µM (inactive),> 100 µM (inactive),–
COc1ccc(-c2cc(-c3cc(Cl)cc(Br)c3O)nc(O)n2)cc1,–,14.1 µM (inactive),14.6 µM (inactive),17.2 µM (inactive),16.7 µM (inactive),15 µM (inactive),19.7 µM (inactive),–,–
CCSc1nnc(-c2ccccc2)nc1Cc1ccc(OC)cc1,62.7 µM (inactive),–,50.8 µM (inactive),> 100 µM (inactive),> 100 µM (inactive),71.9 µM (inactive),> 100 µM (inactive),–,–
Cc1ccc2nc(NC(=O)C(=O)C(C#N)c3nc4ccccc4s3)sc2c1 (stereo unspecified),28.8 µM (inactive),24.8 µM (inactive),28.4 µM (inactive),11.6 µM (inactive),–,28.4 µM (inactive),43.6 µM (inactive),44.7 µM (inactive),–
CN(C)CC1CC/C(=C\c2ccc(Cl)cc2)C1=O (stereo unspecified),7.66 µM (inactive),7.52 µM (inactive),1.99 µM (inactive),18.2 µM (inactive),3.71 µM (inactive),3.85 µM (inactive),3.54 µM (inactive),20.4 µM (inactive),–
CSc1sc(=S)sc1C(=O)N(C)c1ccccc1,> 100 µM (inactive),> 100 µM (inactive),> 100 µM (inactive),–,–,> 100 µM (inactive),> 100 µM (inactive),–,–
CC1(C)Oc2ccccc2N2O[C@@H]3C(=O)N(c4ccccc4)C(=O)[C@@H]3C21c1ccccc1 (stereo partly specified),–,23.2 µM (inactive),56.1 µM (inactive),24.3 µM (inactive),25.1 µM (inactive),–,29 µM (inactive),–,–
CCOC(=O)c1csc(CCCCCCc2nc(C(=O)OCC)cs2)n1,26.7 µM (inactive),–,56.1 µM (inactive),75.5 µM (inactive),> 61.4 µM (inactive),41.2 µM (inactive),21.9 µM (inactive),> 87.7 µM (inactive),–
CCN(CC)C(=O)CCn1ccc(=O)[nH]c1=O,> 100 µM (inactive),> 100 µM (inactive),> 100 µM (inactive),–,–,> 100 µM (inactive),> 100 µM (inactive),–,–
CC(=O)O[C@@H]1CC(C)C2CC2C2=C(C(O)OC2O)[C@@H]1C(C)CCC=C(C)C (stereo partly specified),19 µM (inactive),23.2 µM (inactive),27.6 µM (inactive),–,32.4 µM (inactive),21.4 µM (inactive),22.8 µM (inactive),–,–
COC(=O)C1=Cc2cc(OC)c(OC)c(OC)c2[C@H](c2cc(OC)c(OC)c(OC)c2)C1C(=O)OC (stereo partly specified),> 100 µM (inactive),> 100 µM (inactive),> 100 µM (inactive),–,> 100 µM (inactive),> 100 µM (inactive),> 100 µM (inactive),> 100 µM (inactive),–
C1CN(P2(N3CC3)=NP(N3CC3)(N3CC3)=NP(N3CC3)(N3CC3)=N2)CCO1 (stereo unspecified) [FOTRETAMINE],> 100 µM (inactive),80.7 µM (inactive),> 100 µM (inactive),> 100 µM (inactive),> 53.5 µM (inactive),32.4 µM (inactive),> 100 µM (inactive),–,–
